We go through five compounds from patent US6514969B2, “β-amyloid inhibitors, processes for preparing them, and their use in pharmaceutical compositions” (Boehringer Ingelheim Pharma KG, priority 2000, dated 2003).

The pIC50 is the IC50 on a negative log10 scale, so that one unit is a factor of ten. The low end stands for a large IC50, the high end for a small IC50.

This assay relates to Aβ formation in human astroglioma cells (U 373) transfected with human APP751 (U373-K10). The assay is described as follows: Inhibition of Aβ formation in medium of APP751-overexpressing U373-K10 cells (ELISA). Conditions: U373 MG. It counts as cell-based. An excerpt: The compounds according to the invention are characterized in that they inhibit the process of the formation of Aβ or its release from cells. This property was investigated according to the test described below.
The inhibition of Aβ formation was investigated in the medium of a cell line overexpressing APP751. For this purpose, human astroglioma cells (U 373, ATCC) were stably transfected with the gene for human APP751 under the control of a CMV promoter (vector pRC-CMV). A clone with a high APP751 expression (U373-K10) was selected. In order to carry out the assay the cells are plated out in 96-well plates (Falcon) in Dulbecco's-Minimal-Essential medium (DMEM, Bio-Whittaker) with 10% FCS and cultivated to confluence at 37° C./5% CO2.
The substances to be tested are first dissolved in 100% DMSO and then diluted to the test concentration in culture medium, so that the DMSO concentration of the test solution is always below 0.5%.
150 μl of the test solution are added per well to a confluent culture plate which has previously been washed once with DMEM, and pre-incubated for about 16 hours. This solution is replaced by 150 μl of fresh test solution after 1 wash and incubated again for 4 hours.
100 μl of this four-hour supernatant are transferred to an ELISA plate (Nunc) coated with the antibody 6E10 (specific for Aβ1-16, Senetek), and incubated overnight at 4° C. The Aβ is determined the next day by means of the alkaline phosphatase-conjugated antibody 6B10, which is specific for Aβ32-40.
(In an ELISA, binding on a coated surface is turned into a signal by an enzyme label.)

pIC50: −log10 of the molar value.

For the compound `O=c1[nH]c2ccccc2n1C1CCN(CCCc2c(-c3ccccc3)nc3ccccn23)CC1` [Example 12, 1-{1-[3-(2-phenylimidazo[1,2-a]pyridin-3-yl)propyl]piperidin-4-yl}-1,3-dihydrobenzimidazol-2-one], the pIC50 is 4.92.
Compound `Clc1ccc(CN2CCN(CCCc3c(-c4ccc(Cl)cc4)nc4ccccn34)CC2)cc1` [Example 20, 3-{3-[4-(4-chlorobenzyl)piperazin-1-yl]propyl}-2-(4-chlorophenyl)imidazo[1,2-a]pyridine] showed a pIC50 of 4.46.
To `O=c1[nH]c2ccccc2n1C1CCN(CCCc2c(-c3ccc(Cl)cc3)nc3ccccn23)CC1` [Example 13, 1-{1-[3-(2-p-chlorophenylimidazo[1,2-a]pyridin-3-yl)propyl]piperidin-4-yl}-1,3-dihydrobenzimidazol-2-one] belongs 4.82; to `Clc1ccc(-c2nc3ccccn3c2CCCN2CCN(Cc3ccccc3)CC2)cc1` [Example 14, 3-[3-(4-benzylpiperazin-1-yl)propyl]-2-(4-chlorophenyl)imidazo[1,2-a]pyridine], 4.52.
In turn, `O=C(/C=C/c1c(-c2ccccc2)nc2ccccn12)N1CCC(n2c(=O)[nH]c3ccccc32)CC1` [Example 21] had a pIC50 of 4.70.
